Where “and” joins values, the source holds several entries; their conditions need not be identical. Equal entries are not always repeated. Entries after “also recorded” stand apart in the source; their conditions may differ.
Experiments:
[1] = Radiation dosimetry of [^89Zr]Zr-PSMA-617 (QDOSE / IDAC 2.1); type: in vivo, human (patients); parameters: TIAC (time-integrated activity coefficient): unit not given here
Method: Each patient underwent PET/CT imaging scans at 4 time points: 1 h, 24 h, 48 h, and 72 h post intravenous injection (p.i.) of 111 ± 11 MBq (mean ± standard deviation, range 97–129 MBq) [^89Zr]Zr-PSMA-617. All PET/CT imaging was performed on a Biograph mCT 40 scanner (Siemens Medical Solutions, Knoxville, TN, USA) comprising whole-body PET/CT scans extending from vertex to mid-femur in 3D mode. PET acquisition time duration was 4 min per bed position on the initial day of injection and extended up to 10 min on the last day. CT data were acquired in low-dose technique using an X-ray tube voltage of […] and a modulation of the tube current (CARE Dose4D, Siemens Erlangen; maximal tube current 30 mA) followed by reconstruction with a soft tissue reconstruction kernel (B31f) to a slice thickness of 5 mm (increment 2–4 mm). PET emission data was corrected for decay, randoms, and scatter. PET image reconstruction was performed applying an iterative 3-dimensional ordered-subset expectation maximization (OSEM) algorithm (3 iterations; 24 subsets) with gaussian filtering to a transaxial resolution of 5 mm at full width half maximum (FWHM). The matrix and the pixel size were 200 × 200 and 3.0 mm, respectively. Attenuation correction was performed using the low-dose CT data.
Mean absorbed radiation doses were estimated using the QDOSE program package (ABX-CRO, Dresden, Germany) considering the following organs as source organs: kidneys, liver, spleen, salivary glands (parotid gland and submandibular gland), and lacrimal gland. As a first step, volumetric co-registration of the different time points was performed by taking the first CT scan as reference. PET images, which were coupled to the CT images of the respective imaging session, were transformed according to the CT transformation matrix. Boundary VOIs which solely enclosed the source organs without interfering with the activity concentration of neighboring structures were manually drawn in the PET image that allowed the best organ delineation and then copied onto all other time-point scans. Manual adjustment of the boundary VOI for each time point was done when necessary, using the respective CT. Volume and activity estimation were performed within the boundary applying a fuzzy locally adaptive Bayesian (FLAB) segmentation algorithm for automatic volume delineation. The next step comprised mono-exponential regression of the serial measured activities using weighted least squares method and estimation of both, the time integrated activities (TIA) and the time-integrated activity coefficients (TIAC) in the source regions. As an approximation, a linear increase from t = 0 to the first acquisition time point was assumed, and the integration method for the first time interval was based on the trapezoidal method. Between the first and the last time point, a trapezoidal integration was used, whereas the TIA from the last time-point to infinity was calculated analytically by applying the mono-exponential fitting curve. The respective TIACs (often termed residence time) of the source organs were calculated by normalizing the TIA to the amount of activity administered. The total body TIA was calculated approximately using the total FOV volume of interest and the injected activity. As a further approximation, constant activity between t = 0 and the first acquisition time point was assumed, and the integration method for the first-time interval was based on the trapezoidal method. Between the first time point and infinity, the TIA was calculated analytically by using the mono-exponential fitting curve. Estimations of absorbed organ dose and effective dose were performed by the IDAC 2.1 software which is implemented in QDOSE [25–27]. The IDAC reference man was applied for the kidneys, the spleen, the liver, the heart and the intestine, and the sphere model for the salivary and lacrimal glands. […]

[2] = Adverse event recording after [^89Zr]Zr-PSMA-617 PET/CT; type: in vivo, human (patients); conditions: 7 patients, 111 ± 11 MBq i.v., during examination and 4 weeks follow-up
Method: Any adverse event was recorded during and after examination. Vital parameters as heart rate, blood pressure, body temperature, and oxygen saturation were closely monitored. Within a time interval of 4 weeks after [^89Zr]Zr-PSMA-617 PET/CT, patients were additionally interviewed about potential side effects.

Compound: O=C([O-])CN1CCN(CC(=O)[O-])CCN(CC(=O)NCC2CCC(C(=O)NC(Cc3ccc4ccccc4c3)C(=O)NCCCCC(NC(=O)NC(CCC(=O)O)C(=O)O)C(=O)O)CC2)CCN(CC(=O)[O-])CC1.[89Zr+4] (stereo not drawn) [[^89Zr]Zr-PSMA-617]
- Overall effective dose, times higher than PET with [^68Ga]Ga-PSMA-617 or [^68Ga]Ga-PSMA-11 ([1]; 111 MBq vs diagnostic activity of 200 MBq of the 68Ga tracers (ref 29, 30)): 2–3 times
- Effective dose ([1]; average of 7 patients, mean ± SD): 0.0913 ± 0.0118 mSv/MBq
- Absorbed doses of parotid glands and kidneys, times higher than [^68Ga]Ga-PSMA-617 and [^68Ga]Ga-PSMA-11 ([1]; in absolute numbers, comparators ref 29, 30): 3–4 times
- TIAC (time-integrated activity coefficient) ([1]; kidneys, mean ± SD): 1.74 ± 0.44
- l (rate constant) ([1]; kidneys, mean ± SD): 0.022 ± 0.002 h⁻¹
- A (% injected A0), monoexponential curve-fitting parameter ([1]; kidneys, mean ± SD, n = 7 patients): 3.75 ± 1.24 % injected A0
- Absorbed dose ([1]; kidneys, mean ± SD, IDAC 2.1): 0.517 ± 0.125 mGy/MBq
- A (% injected A0), monoexponential curve-fitting parameter ([1]; lacrimal gland, mean ± SD): 0.02 ± 0.01 % injected A0
- l (rate constant) ([1]; lacrimal gland, mean ± SD): 0.030 ± 0.006 h⁻¹
- Absorbed dose ([1]; lacrimal gland, mean ± SD, sphere model): 0.156 ± 0.070 mGy/MBq
- A (% injected A0), monoexponential curve-fitting parameter ([1]; liver, mean ± SD): 6.62 ± 1.39 % injected A0
- TIAC (time-integrated activity coefficient) ([1]; liver, mean ± SD): 1.54 ± 0.49
- l (rate constant) ([1]; liver, mean ± SD): 0.049 ± 0.014 h⁻¹
- Absorbed dose ([1]; liver, mean ± SD, IDAC 2.1): 0.158 ± 0.051 mGy/MBq
- A (% injected A0), monoexponential curve-fitting parameter ([1]; parotid gland, mean ± SD): 0.70 ± 0.20 % injected A0
- TIAC (time-integrated activity coefficient) ([1]; parotid gland, mean ± SD): 0.31 ± 0.10
- l (rate constant) ([1]; parotid gland, mean ± SD): 0.031 ± 0.005 h⁻¹
- Absorbed dose ([1]; parotid gland, mean ± SD, sphere model): 0.601 ± 0.185 mGy/MBq
- A (% injected A0), monoexponential curve-fitting parameter ([1]; spleen, mean ± SD): 1.25 ± 0.70 % injected A0
- TIAC (time-integrated activity coefficient) ([1]; spleen, mean ± SD): 0.21 ± 0.12
- l (rate constant) ([1]; spleen, mean ± SD): 0.079 ± 0.034 h⁻¹
- Absorbed dose ([1]; spleen, mean ± SD, IDAC 2.1): 0.175 ± 0.068 mGy/MBq
- A (% injected A0), monoexponential curve-fitting parameter ([1]; submandibular gland, mean ± SD): 0.27 ± 0.09 % injected A0
- TIAC (time-integrated activity coefficient) ([1]; submandibular gland, mean ± SD): 0.13 ± 0.04
- l (rate constant) ([1]; submandibular gland, mean ± SD): 0.029 ± 0.004 h⁻¹
- Absorbed dose ([1]; submandibular gland, mean ± SD, sphere model): 0.468 ± 0.136 mGy/MBq and 0.468 ± 0.185 mGy/MBq
- Side effects / adverse events [2]: not associated with any side effects; also recorded: no other side effects were observed

Reference: article PMC9606102, “[^89Zr]Zr-PSMA-617 PET/CT in biochemical recurrence of prostate cancer: first clinical experience from a pilot study including biodistribution and dose estimates” (European Journal of Nuclear Medicine and Molecular Imaging, 2022)
